# Reference: ChEMBL document CHEMBL4680271, “COVID-19: Drug Targets and Potential Treatments” (J Med Chem, 2020)
# pIC50: −log10 of the molar value.
# Test: Inhibition of CTSL/CTSB in 293T/17 cells harboring ACE2 assessed as reduction in SARS-CoV-2 S pseudovirions entry into host cell incubated for 2 days by luciferase method
# Format: cell-based
# Conditions: Severe acute respiratory syndrome-related coronavirus, HEK293T/17, 48 h
row,SMILES,pIC50
1,CC(C)(C)N1CCN(C(=O)N[C@@H](Cc2ccccc2)C(=O)N[C@H](/C=C/S(=O)(=O)c2ccccc2)CCc2ccccc2)CC1,10.10
2,CN1CCN(C(=O)N[C@@H](Cc2ccccc2)C(=O)N[C@H](/C=C/S(=O)(=O)c2ccccc2)CCc2ccccc2)CC1 [K-777],9.49
